Results reported in patent US10676518B1, “A4B2 nicotinic acetylcholine receptors with reduced or increased nicotine sensitivity and transgenic mouse model for the same” (University of Puerto Rico, priority 2015, dated 2020).
Marks after values point to notes of the source that are not given here.

Tests used:
Format in all cases: cell-based, Rattus norvegicus
[1] = tested on: α4β2 nAChRs expressed in Xenopus laevis oocytes; experiment: Two-electrode voltage clamp, nicotine-induced currents in oocytes; set-up: key to Nicotine EC50 (μM) / Nicotine Hill Coef. / Nicotine Peak Current (nA): (n/f) non-functional; (n/e) no-expression; key to Nicotine sensitivity mark of the mutation: Mutations highlighted in green (‡) exhibit hypersensitivity to nicotine; those in red (¶) exhibit agonist selectivity evidenced by their remarkable reductions in sensitivity to nicotine; details: for Nicotine Hill Coef. / Nicotine Peak Current (nA) / receptor function with nicotine / Nicotine EC50 (μM) / nicotine-induced macroscopic peak current compared with WT: nicotine as agonist; for Nicotine Peak Current (nA) / Nicotine EC50 (μM): mean ± SEM of 6-17 oocytes; for receptor function with nicotine / nicotine-induced macroscopic peak current compared with WT: in words; for Nicotine EC50 (μM): −70 mV; for Nicotine sensitivity mark of the mutation: footnote mark beside the mutation
Description: (§1) Single point mutations were prepared using the Quickchange™ Site-Directed Mutagenesis Kit (Stratagene, La Jolla, Calif.). The template used for the PCR reaction was the pGEMHE vector with Rattus norvegicus cDNA coding for the α4 neuronal nAChR subunit. DNA was purified using a QIAprep spin miniprep kit (Quiagen, Germantown, Md.) and then sequenced to confirm the incorporation of each mutation. A total of 11 residues in the cytoplasmic loop of the α4 subunit were chosen to be mutated: S364, T417, S438, S469, S471, S490, S504, S516, T536, Y576, and S589. Each residue was mutated to alanine (A) and aspartic acid (D).
(§2) Each subunit encoding mRNA was synthesized in vitro from linearized pGEMHE plasmid templates of Rattus norvegicus cDNA coding for α4 and β2 nAChR subunits using the mMessage mMachine RNA transcription kit (Ambion, Austin, Tex.). mRNA mixtures of α4 and β2 subunits were prepared at 2 μg:3 μg ratio, and 32.2 nL of this mixture was microinjected into each oocyte. The mRNA mixture was microinjected, using a displacement injector (Drummond Instruments, Broomhall, Pa.), into stage V and VI oocytes that had been extracted, incubated in collagenase Type 1A (Sigma, St. Louis, Mo.), and defolliculated by manual dissection. The injected oocytes were incubated at 19° C. for 3-4 days in ND-96 medium supplemented with albumin, gentamicin, tetracycline, and theophyline. Electrophysiological experiments were performed after the third or fourth day of mRNA injection.
(§3) Oocytes injected with the mRNA transcripts of α4 and β2 subunits were characterized using a two-electrode voltage clamp. ACh- and nicotine-induced currents were recorded at 20° C., 3-4 days after mRNA injection, with a GeneClamp 500B Amplifier (Axon Instruments, Foster City, Calif.). […] All the reagents used were purchased from Sigma-Aldrich, Co. (St. Louis, Mo.). For dose-response curves, each oocyte was held at a membrane potential of −70 mV. Membrane currents were digitized using the DigiData 1322A interface (Axon Instruments, Foster City, Calif.), filtered at 2 kHz during recording. The Clampex 10.0 software running on a Pentium 4-based computer was used for data acquisition. Data analysis was via Prism 3.0 (Graphpad Software, San Diego, Calif.). Dose-response data for the α4β2 combination were collected using seven ACh doses (0.1, 1, 3, 10, 30, 100, and a seventh concentration ranging from 300 to 1000 μM depending on the mutant) and seven nicotine concentrations (0.1, 1, 3, 10, 30, 100, 300 μM). The data were fitted using a one-component sigmoidal dose-response equation, Y=I/ImaxBottom+(I/ImaxTop−I/ImaxBottom)/(1+10^((Log EC50−X)×HillSlope)) where X is the logarithm of concentration and Y is the response.
Target sequence in this assay (P09483 31-333 limits assumed): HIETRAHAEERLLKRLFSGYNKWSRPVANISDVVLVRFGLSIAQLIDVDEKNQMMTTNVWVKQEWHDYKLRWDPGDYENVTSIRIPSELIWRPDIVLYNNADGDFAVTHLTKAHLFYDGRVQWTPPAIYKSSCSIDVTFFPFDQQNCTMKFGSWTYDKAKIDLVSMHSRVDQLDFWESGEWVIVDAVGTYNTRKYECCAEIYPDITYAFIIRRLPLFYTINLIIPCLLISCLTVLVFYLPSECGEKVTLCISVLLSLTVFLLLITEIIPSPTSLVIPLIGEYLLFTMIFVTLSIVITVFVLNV
Target sequence in this assay (P12390 25-500, further chain): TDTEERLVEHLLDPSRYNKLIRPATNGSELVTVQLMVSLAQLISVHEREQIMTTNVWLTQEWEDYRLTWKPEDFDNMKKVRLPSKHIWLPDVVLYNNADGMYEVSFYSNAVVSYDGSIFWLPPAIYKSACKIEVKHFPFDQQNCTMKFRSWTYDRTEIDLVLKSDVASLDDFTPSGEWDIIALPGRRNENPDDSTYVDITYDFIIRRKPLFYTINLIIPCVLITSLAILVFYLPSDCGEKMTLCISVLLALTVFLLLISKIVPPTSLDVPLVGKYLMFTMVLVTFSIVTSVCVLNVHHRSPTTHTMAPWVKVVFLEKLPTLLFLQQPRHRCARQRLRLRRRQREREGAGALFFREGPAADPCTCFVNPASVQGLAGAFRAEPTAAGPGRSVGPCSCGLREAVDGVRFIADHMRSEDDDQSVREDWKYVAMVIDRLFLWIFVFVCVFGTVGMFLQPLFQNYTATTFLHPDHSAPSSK

[2] = tested on: α4β2 nAChRs expressed in Xenopus laevis oocytes; experiment: Two-electrode voltage clamp, ACh-induced currents in oocytes; set-up: key to ACh EC50 (μM) / ACh Hill Coef. / ACh Peak Current (nA): (n/f) non-functional; (n/e) no-expression; details: ACh as agonist; for ACh Peak Current (nA) / ACh EC50 (μM): mean ± SEM of 6-17 oocytes; for ACh-induced macroscopic peak current compared with WT / receptor function with ACh: in words; for ACh EC50 (μM): −70 mV
Description: as §1, §2, §3
Target sequence in this assay (P09483 31-249 limits assumed): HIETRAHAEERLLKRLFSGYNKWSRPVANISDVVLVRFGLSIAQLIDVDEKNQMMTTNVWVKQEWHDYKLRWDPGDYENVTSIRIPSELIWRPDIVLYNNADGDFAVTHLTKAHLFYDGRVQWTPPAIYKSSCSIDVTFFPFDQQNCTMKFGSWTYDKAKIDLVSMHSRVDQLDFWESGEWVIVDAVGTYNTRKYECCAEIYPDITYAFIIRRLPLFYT
Target sequence in this assay (P12390 25-237 limits assumed, further chain): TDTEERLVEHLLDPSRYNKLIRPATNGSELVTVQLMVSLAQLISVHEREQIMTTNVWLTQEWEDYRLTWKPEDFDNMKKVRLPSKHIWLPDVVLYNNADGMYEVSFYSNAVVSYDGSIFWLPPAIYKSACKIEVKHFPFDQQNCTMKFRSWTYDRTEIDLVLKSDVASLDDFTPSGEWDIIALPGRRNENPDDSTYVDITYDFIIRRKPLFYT

[3] = tested on: α4β2 nAChRs expressed in Xenopus laevis oocytes; experiment: Efficacy of agonist A-85380 versus ACh for subunit stoichiometry determination; details: A-85380 100 nM vs ACh 300 μM; α4β2 mRNA 2:3 ratio
Description: To determine whether the α4β2 mutations α4S469Aβ2, α4S471Dβ2, α4T536Aβ2 and α4Y576Aβ2 expressed in Xenopus laevis oocytes assemble in the α4(2):β2(3) or the α4(3):β2(2) stoichiometry, we estimated the efficacy of agonist A-85380 when compared to ACh 300 μM. […] The efficacy of A-85380 in WTα4(2):β2(3) and […] was determined by comparing the macroscopic current elicited by A-85380 100 nM and ACh 300 μM in oocytes microinjected α4β2 mRNA in 1:10 and 10:1 ratios, respectively. The efficacy of A-85380 in α4S469Aβ2, α4S471Dβ2, α4T536Aβ2 and α4Y576Aβ2 was determined by comparing the macroscopic current elicited by A-85380 100 nM and ACh 300 μM in oocytes microinjected α4β2 mRNA in 2:3 ratio. The changes in stoichiometry in these four mutants were assessed by comparing the efficacy of A-85380 in each mutant compared to WTα4(2):β2(3) and WTα4(3):β2(2).

Substance | Nicotine Hill Coef. [1] | Nicotine Peak Current (nA) [1] | Nicotine Peak Current (nA) ([1]; listed as WT) | ACh Hill Coef. [2] | ACh Peak Current (nA) [2] | receptor function with nicotine [1] | Nicotine EC50 (μM) [1] | ACh-induced macroscopic peak current compared with WT [2] | Nicotine sensitivity mark of the mutation [1] | nicotine-induced macroscopic peak current compared with WT [1] | Nicotine Peak Current (nA) ([1]; listed as α4S438D) | efficacy of A-85380 compared with WT injected 2:3 or 1:10 ratio [3] | Nicotine Peak Current (nA) ([1]; listed as α4S469A) | receptor function with ACh [2] | ACh EC50 (μM) [2]
WT α4β2: wild-type rat α4β2 neuronal nicotinic acetylcholine receptor expressed in Xenopus laevis oocytes [reference compound] | 1.80 | 387 ± 66 nA | 387±66 | 1.00 | 2110 ± 243 nA |  |  |  |  |  |  |  |  |  | 
α4S438Aβ2: rat α4β2 nAChR, α4 subunit point mutation S438A, CKII putative phosphorylation site | n/f | n/f |  | 0.49 | 97 ± 29 nA | non-functional | n/f | significant decreases in the macroscopic peak currents |  |  |  |  |  |  | 
α4S438Dβ2: rat α4β2 nAChR, α4 subunit point mutation S438D, CKII putative phosphorylation site | 1.29 | 2156 ± 475 nA |  | 0.68 | 1938 ± 367 nA |  |  | no change in the macroscopic peak current | α4S438Dβ2‡ | significant increases in the macroscopic peak currents | 2156±475 |  |  |  | 
α4S469Aβ2: rat α4β2 nAChR, α4 subunit point mutation S469A, CKII putative phosphorylation site | 1.84 | 1552 ± 313 nA |  | 0.87 | 2222 ± 413 nA |  |  | no change in the macroscopic peak current | α4S469Aβ2‡ | significant increases in the macroscopic peak currents |  | no significant difference | 1552±313 |  | 
α4S469Dβ2: rat α4β2 nAChR, α4 subunit point mutation S469D, CKII putative phosphorylation site | n/f | n/f |  | n/f | n/f | non-functional | n/f |  |  |  |  |  |  | non-functional | n/f
α4S471Aβ2: rat α4β2 nAChR, α4 subunit point mutation S471A, PKA putative phosphorylation site | n/f | n/f |  | n/f | n/f |  | n/f |  |  |  |  |  |  | non-functional | n/f
α4S471Dβ2: rat α4β2 nAChR, α4 subunit point mutation S471D, PKA putative phosphorylation site | 2.00 | 142 ± 313 nA |  | 1.01 | 1039 ± 139 nA | functional activation by nicotine |  | significant decrease in macroscopic peak current |  | significant decrease in the macroscopic peak current |  | no significant difference |  |  | 
